Assay results taken from US20040102387A1 (priority 2002, published 2004).

biological target: Botulinum neurotoxin type A (Clostridium botulinum, UniProt P0DPI0); type: cell-based
Sequence (P0DPI0 whole entry, looked up): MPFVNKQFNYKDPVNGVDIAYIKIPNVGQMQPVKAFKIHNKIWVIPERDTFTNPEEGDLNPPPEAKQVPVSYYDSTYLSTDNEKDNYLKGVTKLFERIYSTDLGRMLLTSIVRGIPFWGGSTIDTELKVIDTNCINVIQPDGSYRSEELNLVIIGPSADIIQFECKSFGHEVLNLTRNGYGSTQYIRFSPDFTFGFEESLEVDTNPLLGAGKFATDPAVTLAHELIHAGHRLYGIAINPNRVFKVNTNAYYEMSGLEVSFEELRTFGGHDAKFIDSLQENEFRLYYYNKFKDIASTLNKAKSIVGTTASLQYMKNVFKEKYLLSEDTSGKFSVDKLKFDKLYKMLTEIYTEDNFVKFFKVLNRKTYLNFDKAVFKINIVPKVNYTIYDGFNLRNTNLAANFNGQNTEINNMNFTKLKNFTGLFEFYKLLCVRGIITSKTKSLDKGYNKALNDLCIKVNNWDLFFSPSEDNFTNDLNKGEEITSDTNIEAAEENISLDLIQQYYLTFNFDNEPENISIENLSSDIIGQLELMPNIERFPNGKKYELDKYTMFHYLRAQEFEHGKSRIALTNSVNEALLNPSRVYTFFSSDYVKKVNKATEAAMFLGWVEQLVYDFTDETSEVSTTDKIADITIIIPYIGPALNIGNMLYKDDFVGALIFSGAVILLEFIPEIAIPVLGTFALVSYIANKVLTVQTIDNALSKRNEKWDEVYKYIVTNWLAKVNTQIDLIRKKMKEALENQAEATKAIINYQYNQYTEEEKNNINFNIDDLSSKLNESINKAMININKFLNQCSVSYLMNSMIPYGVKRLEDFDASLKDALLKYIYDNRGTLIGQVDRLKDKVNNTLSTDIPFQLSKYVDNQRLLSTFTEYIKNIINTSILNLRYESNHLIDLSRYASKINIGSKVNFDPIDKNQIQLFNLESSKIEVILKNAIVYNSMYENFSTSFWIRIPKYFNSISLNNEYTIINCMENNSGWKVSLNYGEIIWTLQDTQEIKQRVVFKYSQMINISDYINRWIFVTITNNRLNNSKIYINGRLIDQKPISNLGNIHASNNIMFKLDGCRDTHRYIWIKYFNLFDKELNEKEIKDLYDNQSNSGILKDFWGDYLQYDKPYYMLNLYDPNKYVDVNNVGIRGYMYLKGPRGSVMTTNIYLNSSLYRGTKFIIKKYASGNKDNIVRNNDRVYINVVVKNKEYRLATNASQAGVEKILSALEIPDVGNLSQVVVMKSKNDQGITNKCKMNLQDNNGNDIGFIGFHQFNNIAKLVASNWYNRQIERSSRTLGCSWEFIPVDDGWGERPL

Compound	neurotoxin-neutralizing activity (neuromuscular contractility, FIG. 2)
C[C@@H]1O[C@@H](OC[C@H]2O[C@@H](Oc3c(-c4ccc(O)cc4)oc4cc(O)cc(O)c4c3=O)[C@H](O)[C@@H](O)[C@@H]2O)[C@H](O)[C@H](O)[C@H]1O [fourth component, nicotiflorin]	high toxin-neutralizing activities
kaempferol-3-O-glc-(6-1)-rha-(3-1)-glc [third component]	high toxin-neutralizing activities
kaempferol-3-(O-glc-rha)-4′-O-rha [second component]	high toxin-neutralizing activities
C[C@@H]1O[C@@H](OC[C@H]2O[C@@H](Oc3c(-c4ccc(O)c(O)c4)oc4cc(O)cc(O)c4c3=O)[C@H](O)[C@@H](O)[C@@H]2O)[C@H](O)[C@H](O)[C@H]1O [first component, rutin]	high toxin-neutralizing activities
